Laboratory results published in PMC9090282, “Characterization of Calcium-Dependent Protein Kinase 2A, a Potential Drug Target Against Cryptosporidiosis” (Frontiers in Microbiology, 2022).

Legend:
Cryptosporidium parvum [1] = experiment: Anti-cryptosporidial activity on C. parvum development in HCT-8 cultures by qRT-PCR (compound present during invasion and growth, 44 h); type: cell-based
Description: (§1) Using molecular docking of the simulated CpCDPK2A structure, small molecules were selected from the ChemDiv database. The binding energy values of ligands to proteins were calculated based on ligand efficiency, Coulomb energy, Van der waals energy, and H-bond energy. Candidate small molecules were purchased from TopScience Ltd. (Shanghai, China) and screened for activities against C. parvum development in vitro using qRT-PCR ([Zhang et al., 2012]). Briefly, HCT-8 monolayers (2 × 10^4 cells/well) grown in 96 well plates were inoculated with hypochlorite-treated oocysts (2 × 10^4 oocysts/well) containing dilutions of compounds (10 μM) or DMSO (1%). The parasites were allowed to invade host cells for 3 h, and uninvaded parasites were washed off with the medium change. […] The levels of 18S rRNA transcripts of C. parvum and HCT-8 cells were measured by using the HiScript II One Step qRT-PCR SYBR Green kit (Vazyme Biotech, Nanjing, China) as described ([Zhang et al., 2012]). The parasite loads in cultures were calculated using the ΔΔCT method ([Cai et al., 2005]). […] The cytotoxicity of compounds was evaluated by the Cell Titer 96 Aqueous One Solution Cell Proliferation Assay (Promega) as described ([Pobsuk et al., 2019]). The half-maximal toxic concentration (TC50) values on host cells were calculated using Graphpad Prism 7 (Graphpad software, San Diego, United States).

HCT-8 cells = experiment: Cytotoxicity, Cell Titer 96 Aqueous One Solution Cell Proliferation Assay; type: cell-based, human
Description: as §1

rCpCDPK2A = rCpCDPK2A (Cryptosporidium parvum, UniProt Q5CTY5); experiment: NADH-coupled ATPase assay of rCpCDPK2A enzyme activity; type: biochemical
Description: The enzymatic activity of rCpCDPK2A was measured using the […] NADH-coupled ATPase assay as described previously ([Rutaganira et al., 2017]). The kinase reaction was conducted at 30°C for 40 min in 100 mM HEPES, pH 8.0, 150 mM NaCl, 10 mM MgCl2, 1 mM CaCl2, 50 mM KCl, 10 mM DTT, 2 μg/ml BSA, and 0.01% Tween 20. The typical assay of 100 μl reactions contained 50 μM Syntide-2, 50 μM ATP, 150 μM NADH, 300 μM phosphoenolpyruvate (PEP), and a mixture of pyruvate kinase (4 units/ml) and lactate dehydrogenase (6 units/ml; Sigma). The reaction was initiated with the addition of 100 nM rCpCDPK2A. A recombinant insulinase-like protease of C. parvum, INS-16, was used as the negative control. To assess the inhibitory effect on enzymatic activities of rCpCDPK2A, six active compounds were added to the reaction at 10 μM in duplicate. Compounds with significant inhibition rates were selected to determine the half-maximal inhibition concentration (IC50) using final concentrations of 1 μM to 20 μM. The IC50 values were calculated using Graphpad Prism 7.

Cryptosporidium parvum [2] = experiment: Invasion experiment: HCT-8 cells infected with oocysts and cultured with compound for 3 h, qRT-PCR; type: cell-based; conditions: 0.01 to 20 μM, compound only during invasion phase (3 h)
Description: (§2) Candidate anti-cryptosporidial compounds were further examined for their effects on C. parvum invasion or development assays. In invasion experiments, HCT-8 cells plated on coverslips were infected with bleached oocysts and cultured with active compounds for 3 h at 37°C. In growth experiments, monolayers were infected with bleached oocysts, washed twice with PBS at 3 h post-infection, and returned to culture in fresh HCT-8 medium with active compounds for 41 h. RNA was collected from each well at specified time point to assess the anti-cryptosporidial activities of these compounds using qRT-PCR method described above. The addition of 140 μM paromomycin was used as a positive control. Parasite enumeration by immunofluorescence microscopy was used to verify the efficacy of active compound K292-0423 against C. parvum development in vitro.

Cryptosporidium parvum [3] = experiment: Growth experiment: compound added at 3 h post-infection for 41 h, qRT-PCR; type: cell-based; conditions: read-out: EC50 on parasite loads, compound added after invasion
Description: as §2

Cryptosporidium parvum [4] = experiment: Parasite enumeration by immunofluorescence microscopy in treated HCT-8 cultures; type: cell-based; conditions: 10 μM; positive control paromomycin 140 μM
Description: as §2

Sequence of rCpCDPK2A (Q5CTY5 entry or part of it): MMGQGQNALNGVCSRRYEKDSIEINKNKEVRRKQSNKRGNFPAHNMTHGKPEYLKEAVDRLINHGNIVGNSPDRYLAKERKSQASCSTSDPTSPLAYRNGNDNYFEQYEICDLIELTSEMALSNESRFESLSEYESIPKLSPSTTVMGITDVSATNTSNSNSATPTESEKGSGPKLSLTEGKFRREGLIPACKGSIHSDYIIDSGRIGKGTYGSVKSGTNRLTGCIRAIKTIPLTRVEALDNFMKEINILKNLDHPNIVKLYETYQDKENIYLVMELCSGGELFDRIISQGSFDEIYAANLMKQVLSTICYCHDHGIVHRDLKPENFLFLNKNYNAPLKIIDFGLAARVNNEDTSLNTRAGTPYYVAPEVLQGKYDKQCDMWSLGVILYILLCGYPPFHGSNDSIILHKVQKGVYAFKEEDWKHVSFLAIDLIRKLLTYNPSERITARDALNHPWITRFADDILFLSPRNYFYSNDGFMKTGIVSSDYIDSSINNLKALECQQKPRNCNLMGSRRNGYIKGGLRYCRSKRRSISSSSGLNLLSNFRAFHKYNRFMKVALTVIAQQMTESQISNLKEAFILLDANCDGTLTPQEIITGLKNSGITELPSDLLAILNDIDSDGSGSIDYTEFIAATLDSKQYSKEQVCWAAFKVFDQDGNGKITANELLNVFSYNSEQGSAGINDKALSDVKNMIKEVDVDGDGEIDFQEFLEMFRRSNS

O=C(CSc1nc2ccsc2c(=O)n1-c1ccc(Cl)cc1)NCc1ccco1 [K292-0423]
inhibition at 10 µM (Cryptosporidium parvum [1]; 10 μM, read-out: Inhibition of parasite growth in primary screening): > 60% | EC50 (Cryptosporidium parvum [1]; dilutions 10 nM to 20 μM, read-out: EC50 (half-maximal effective concentration) on C. parvum growth): 1.13 µM | TC50 (half-maximal toxic concentration) (HCT-8 cells): >75 µM | inhibition at 10 µM (rCpCDPK2A; 10 μM compound, read-out: Inhibition rate of rCpCDPK2A activity): 73.1% | IC50 (rCpCDPK2A; concentrations 1 μM to 20 μM, read-out: IC50 on CpCDPK2A enzyme): 8.42 µM | Inhibition rates of invasion of HCT-8 cells by C. parvum (Cryptosporidium parvum [2]): −24.27 to 37.66% | EC50 (Cryptosporidium parvum [3]): 3.16 µM | Inhibitory effect by direct enumeration of parasites (Cryptosporidium parvum [4]): inhibitory effects similar to that by the positive control paromomycin
